In patent US6372297B1, “Wood preservative oxathiazines” (Uniroyal Chemical Company, Inc., priority 1993, dated 2002):

Legend:
[1] = system: blue-stain fungi and molds; assay: Activity against blue-stain fungi and molds on a stick test on vermiculite (paint film); parameters: key to Surface score of wooden sticks treated with paint formulation, C. cladosporioides / Surface score of wooden sticks treated with paint formulation, P. purpurogenum / Surface score of wooden sticks treated with paint formulation, P. violacea / Surface score of wooden sticks treated with paint formulation, R rubra (y) / Surface score of wooden sticks treated with paint formulation, S. chartarum / Surface score of wooden sticks treated with paint formulation, A. versicolor / Surface score of wooden sticks treated with paint formulation, A. pullulans: 0: No growth; Trace of growth of up to 1% coverage of the test inoculated area; 2: Growth covering between 1 and 10% of the inoculated test area; Growth covering between 10 and 30% of the inoculated test area; 4: Growth covering between 30 and 70% of the inoculated test area; 5: Growth covering more than 70t of the inoculated test area; conditions: 12 weeks on vermiculite; for Surface score of wooden sticks treated with paint formulation, R rubra (y): R rubra (yeast)
Outline: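 Painted, γ-sterilised beech sticks dipped in spore suspensions of each fungus, then held on moist vermiculite for 12 weeks. Surface fungal growth scored visually on a 0 (none) to 5 (over 70% of inoculated area) scale.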

[2] = system: mixed spore suspension of blue-stain fungus and molds; assay: Activity against blue-stain fungi and molds in a mold cabinet test (BS3900: Part G6); parameters: key: 0: No growth; Trace of growth of up to 1% coverage of the test inoculated area; 2: Growth covering between 1 and 10% of the inoculated test area; Growth covering between 10 and 30% of the inoculated test area; 4: Growth covering between 30 and 70% of the inoculated test area; 5: Growth covering more than 70t of the inoculated test area
Outline: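 Painted Scots pine sticks, sterilized by irradiation, were treated with compound solutions, dipped in mixed spore suspension and held in a mold chamber for 12 weeks. Surface growth scored 0 (none) to 5 (>70% of inoculated area covered).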

Compound	Surface score of wooden sticks treated with paint formulation, A. pullulans ([1]; 0.15% a.i. in paint)	Surface score of wooden sticks treated with paint formulation, A. pullulans ([1]; 0.3% a.i. in paint)	Surface score of wooden sticks treated with paint formulation, A. versicolor ([1]; 0.15% a.i. in paint)	Surface score of wooden sticks treated with paint formulation, A. versicolor ([1]; 0.3% a.i. in paint)	Surface score of wooden sticks treated with paint formulation, C. cladosporioides ([1]; 0.15% a.i. in paint)	Surface score of wooden sticks treated with paint formulation, C. cladosporioides ([1]; 0.3% a.i. in paint)	Surface score of wooden sticks treated with paint formulation, P. purpurogenum ([1]; 0.15% a.i. in paint)	Surface score of wooden sticks treated with paint formulation, P. purpurogenum ([1]; 0.3% a.i. in paint)	Surface score of wooden sticks treated with paint formulation, P. violacea ([1]; 0.15% a.i. in paint)	Surface score of wooden sticks treated with paint formulation, P. violacea ([1]; 0.3% a.i. in paint)	Surface score of wooden sticks treated with paint formulation, R rubra (y) ([1]; 0.15% a.i. in paint)	Surface score of wooden sticks treated with paint formulation, R rubra (y) ([1]; 0.3% a.i. in paint)	Surface score of wooden sticks treated with paint formulation, S. chartarum ([1]; 0.15% a.i. in paint)	Surface score of wooden sticks treated with paint formulation, S. chartarum ([1]; 0.3% a.i. in paint)	Surface score of wooden sticks treated with paint formulation, U. atrum ([1]; 0.15% a.i. in paint)	Surface score of wooden sticks treated with paint formulation, U. atrum ([1]; 0.3% a.i. in paint)	Surface score in a paint formulation in a mold cabinet test, 6 weeks ([2]; 0.15% in water-based paint)	Surface score in a paint formulation in a mold cabinet test, 12 weeks ([2]; 0.15% in water-based paint)	Surface score in a paint formulation in a mold cabinet test, 6 weeks ([2]; 0.3% in water-based paint)	Surface score in a paint formulation in a mold cabinet test, 12 weeks ([2]; 0.3% in water-based paint)
O=S1(=O)CCON=C1c1cccs1 [Compound 34]	0	0	0	0	0	0	4 (Growth covering between 30 and 70% of the inoculated test area)	1 (Trace of growth of up to 1% coverage of the test inoculated area)	4 (Growth covering between 30 and 70% of the inoculated test area)	1 (Trace of growth of up to 1% coverage of the test inoculated area)	3 (Growth covering between 10 and 30% of the inoculated test area)	0	1 (Trace of growth of up to 1% coverage of the test inoculated area)	0	3 (Growth covering between 10 and 30% of the inoculated test area)	1 (Trace of growth of up to 1% coverage of the test inoculated area)	0.5	1.5	0	1.0
[O-][S+]1CCON=C1c1cccs1 (stereo not shown) [Compound 8]	0	0	0	0	0	0	0	0	4 (Growth covering between 30 and 70% of the inoculated test area)	0	1 (Trace of growth of up to 1% coverage of the test inoculated area)	1 (Trace of growth of up to 1% coverage of the test inoculated area)	0	0	1 (Trace of growth of up to 1% coverage of the test inoculated area)	1 (Trace of growth of up to 1% coverage of the test inoculated area)	0	2.0	0	1.5
